Residues, ends and D or L forms follow the SMILES beside them.

This series in a line: pH stability study of GLYX-13 150 mg/mL HCl formulations (40° C., 3 weeks), HPLC assay and related substances. The format is physicochemical. As for the experimental part: Column: Waters Spherisorb ODS2, 3 μm, 4.6×250 mm, Part # PSS832115
Mobile phase A: 2.2 g/L heptanesulfonic acid, 6.7 g/L potassium dihydrogen phosphate, pH 2.5
Mobile phase B: 70/30 Methanol/Water
Column temperature: 40±1° C.
Sample temperature: 4±1° C.
Four formulations were prepared to examine dissolution of the drug based (Table 2). Each formulation was prepared at 35 mL and contained 5.25 g of GLYX-13.
Each formulation was prepared by adding the drug to a beaker and adjusting the volume to approximately 26 mL using purified water. The pH was adjusted using 5 M HCl that was added in small increments. The solution was mixed for 10 minutes after each adjustment and mixed for 30 minutes after reaching the desired pH. The pH of the solution was checked after 30 minutes and adjusted if needed. The solution was adjusted to 35 mL using purified water when a drift in pH was no longer observed. Each formulation was filled into vials (2.5 mL/vial), sealed with a stopper, and capped. The formulations were stored at 40° C. for 3 weeks and samples were removed weekly. All weekly samples were examined for appearance, tested for pH, assay and related substances using the HPLC assay.
Data were analyzed using the appropriate software designed for the assay and impurities HPLC method. Impurity 1 (RRT 0.43) is cyclo-proline-threonine (“diketopiperazine”). Impurity 2 (RRT 0.57) is proline-threonine amide. […]

On to `CC(O)C(N)C(=O)N1CCCC1C(=O)N1CCCC1C(=O)NC(C(N)=O)C(C)O` (stereo not shown) [GLYX-13] (H-TPPT-NH2; configuration not given here), for which the “rate of impurity formation at pH 7, fold greater than the rate at pH 4” value is recorded as “approximately 6 fold”.

Values taken from patent US20200254050A1, “STABLE COMPOSITIONS OF NEUROACTIVE PEPTIDES” (Naurex Inc., priority 2014, published 2020).
